We go through four compounds from patent US20240124455A1, “TRICYCLIC COMPOUNDS AS ANTICANCER AGENTS” (JINGRUI BIOPHARMA CO., LTD., priority 2021, published 2024).

The target in one assay is T1, BRD4 (BD1) (Homo sapiens, UniProt O60885).
T1 construct: purchased Reaction Biology Company RD-11-157
Briefly: BRD4 (BD1) binding assay (HTRF). The conditions noted are these: BRD4 (D1) with GST tag and biotin-labeled acetylated peptide. The method, then:
The BRD4 (BD1) biochemical binding assay was carried out by Sundia MediTech Co., Ltd. • Materials and suppliers: • BRD4(D1): Reaction Biology Company; catalog #: RD-11-157; batch #1319 • Positive control compound: AZD5153; Selleck, catalog #, S8344, batch #, 1 • Peptide: GL China; catalog #329934; batch #, P171229-JQ329934 • DMSO: Sigma; catalog #, D8418-1L; batch #, SHBG3288V • OptiPlate-384: PerkinElmer; catalog #6007270, batch #, 8240-17211 • Instruments: • Centrifuge (manufacturer: Eppendorf, model: 5430) • Microplate reader (manufacturer: Perkin Elmer, model: EnVision) • Sonic pipetting system (manufacturer: Labcyte, model: Echo® 550) • In the assay, the HTRF method uses an anti-GST antibody with a cryptate chelate-labeled europium element as the donor, and the d2 or XL665-labeled streptavidin (having high affinity with biotin) as the acceptor to study the interaction between BRD4 (D1) with GST tag and biotin-labeled acetylated peptide. When the donor and acceptor are close to each other due to the binding of BRD4 (D1) to the biotin-labeled peptide, the excitation of the donor triggers fluorescence resonance energy transfer (FRET) to the acceptor, which then emits fluorescence at a specific wavelength (665 nm). • General assay procedure: 20 nL of compound solution was transferred to the 384-well plate by Labcyte Echo® 550 liquid handler, and 5 μL of BRD4 (BD1) solution from Reaction Biology Company, RD-11-157, or the assay buffer was added to each well. After centrifuge for 1 minute and incubating 15 minutes at rt, the 5 μL peptide (GL China, Catalog #329934, Batch, P171229-JQ329934) was added to each well. After centrifuge for 1 minute at 1000 rpm, 10 μL detect solution was added to each well. After incubating for 60 minutes, centrifuging 1 minute, the signals were measured by Microplate reader. Data analysis: The inhibition percentage in the presence of the compound was calculated based on the following formula:
% Inhibition=(Signal_max−Signal sample/Signal_max−Signal_min)×100
Fitting the data in GrphaPad Prism V5.0 software with log(inhibitor) vs. response-Variable slope, the IC50 was obtained.
In general terms: Time-resolved FRET reads energy transfer from a long-lived donor to a nearby acceptor.

A further assay deals with MV-4-11. Nature of the assay: Cell proliferation assay (Cell Titer-Glo). The format is cell-based. The conditions noted are these: MV-4-11 cells, compound treatment 72 h, CellTiter-Glo. The method, then: In order to evaluate the activity of the compound on cells, the Cell Titer-Glo assay was used for detection. The cells were incubated in a 37° C. incubator and treated with compounds for 72 hours. At the end of the reaction, the number of living cells in the culture is measured by quantitative determination of ATP. ATP is an indicator of the metabolism of living cells. With Cell Titer-Glo, the luminescence signal produced by cell lysis is proportional to the amount of ATP present, and the amount of ATP is directly proportional to the number of cells in the culture. These signal ratios reflect the cell activity of the compound at that concentration in the well under this condition. • (1) Seeding cells • Trypsinize cells and count cell density with the automated cell counter. • Dilute cell suspension to required density according to seeding density. • Seed 100 ul cells into 96-well plate in growth medium according to the plate map. Medium only is used as background control (Min). • Incubate at 37° C., 5% CO2 overnight. • (2) Compound treatment • Make 200× compound solution in DMSO. • Dilute compounds with growth medium to 3× final concentration by addition of 3 ul 200× compounds to 197 ul growth medium. • Add 50 ul diluted compounds to cells and incubate at 37° C., 5% CO2 for 72 h. • (3) Measurement • Equilibrate the assay plate to room temperature prior to measurement. • Add 40 ul of CellTiter-Glo® Reagent into each well. • Mix contents for 2 minutes on an orbital shaker to induce cell lysis. • Incubate at room temperature for 60 minutes to stabilize luminescent signal. • Record luminescence on Envision. • (4) Data analysis • (1) Using GraphPad Prism 5. • (2) % Inh=(Max signal−Compound signal)/(Max signal−Min signal)×100. • (3) Max signal was obtained from the action of DMSO. • (4) Min signal was obtained from the action of medium only.
In general terms: Cellular ATP, detected with luciferase, serves as a proxy for viable cell number.

Turning to `Cc1nnn(C)c1-c1cnc2c3nn(C)c(C(C)(C)O)c3n(C(c3ccccc3)C3CCOCC3)c2c1` (racemic) [Example 2, 2-(6-(1,4-Dimethyl-1H-1,2,3-triazol-5-yl)-2-methyl-4-(phenyl(tetrahydro-2H-pyran-4-yl)methyl)-2,4-dihydropyrazolo[3′,4′:4,5]pyrrolo[3,2-b]pyridin-3-yl)propan-2-ol], the IC50 (as a rule, the concentration that inhibits the measured activity by half) at BRD4 (BD1) is 0.3 nM; in the assay on MV-4-11 (Homo sapiens, MV4-11, 72 h), 1.48 nM.

In the case of `[2H]C([2H])([2H])c1nnn(C)c1-c1cnc2c3nn(C)c(C(=O)OC)c3n(C(c3ncccc3F)C3CCOCC3)c2c1` (centres unmarked) [Example 17, Methyl 4-((3-fluoropyridin-2-yl)(tetrahydro-2H-pyran-4-yl)methyl)-2-methyl-6-(1-methyl-4-(methyl-d3)-1H-1,2,3-triazol-5-yl)-2,4-dihydropyrazolo[3′,4′:4,5]pyrrolo[3,2-b]pyridine-3-carboxylate], the IC50 worked out at 0.59 nM at BRD4 (BD1) and 3.3 nM in the assay on MV-4-11 (Homo sapiens, MV4-11, 72 h).

With `[2H]C([2H])([2H])c1nnn(C)c1-c1cnc2c3nn(C([2H])([2H])[2H])c(C(C)(C)O)c3n(C(c3ncccc3F)C3CCOCC3)c2c1` (single isomer, unassigned) [Example 24, 2-(4-((3-Fluoropyridin-2-yl)(tetrahydro-2H-pyran-4-yl)methyl)-2-(methyl-d3)-6-(1-methyl-4-(methyl-d3)-1H-1,2,3-triazol-5-yl)-2,4-dihydropyrazolo[3′,4′:4,5]pyrrolo[3,2-b]pyridin-3-yl)propan-2-ol], the IC50 came to 0.17 nM on BRD4 (BD1) and 0.47 nM with MV-4-11.

On to `[2H]C([2H])([2H])c1nnn(C)c1-c1cnc2c3nn(C)c(C(C)(C)O)c3n(C(c3ncccc3F)C3CCOCC3)c2c1` (single isomer, unassigned) [Example 19, 2-(4-((3-Fluoropyridin-2-yl)(tetrahydro-2H-pyran-4-yl)methyl)-2-methyl-6-(1-methyl-4-(methyl-d3)-1H-1,2,3-triazol-5-yl)-2,4-dihydropyrazolo[3′,4′:4,5]pyrrolo[3,2-b]pyridin-3-yl)propan-2-ol], for which the results for the IC50 on BRD4 (BD1) and with MV-4-11 were 5 nM and 85.3 nM, respectively.
